In test [1] the test system is TNFα. Nature of the test: cells. Type of test: cell-based, human. As to conditions: Homo sapiens, Monocyte, LPS-stimulated human monocytes, TNFα content; read-out: EC50 TNF.
Test [2] concerns the target IRAK4 enzyme (Homo sapiens (Human), UniProt Q9NWZ3). The test is described as follows: biochemical. Type of test: biochemical. Conditions: IRAK4 enzyme, TR-FRET, 500 μM ATP. (In general: In TR-FRET formats the signal depends on donor and acceptor labels being close together.)

Chain of IRAK4 enzyme (Q9NWZ3 whole entry): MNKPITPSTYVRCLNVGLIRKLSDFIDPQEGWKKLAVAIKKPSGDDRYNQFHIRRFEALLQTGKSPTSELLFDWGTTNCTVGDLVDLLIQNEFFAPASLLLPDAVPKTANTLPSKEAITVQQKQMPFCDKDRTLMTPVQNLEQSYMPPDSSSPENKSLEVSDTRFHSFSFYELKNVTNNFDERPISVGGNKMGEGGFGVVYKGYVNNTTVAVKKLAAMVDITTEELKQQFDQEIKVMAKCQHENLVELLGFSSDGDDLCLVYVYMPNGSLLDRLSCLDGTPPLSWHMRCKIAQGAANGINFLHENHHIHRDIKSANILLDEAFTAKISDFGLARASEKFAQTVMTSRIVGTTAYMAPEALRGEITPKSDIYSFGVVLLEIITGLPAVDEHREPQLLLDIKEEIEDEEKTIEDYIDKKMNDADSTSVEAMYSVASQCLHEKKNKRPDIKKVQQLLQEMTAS

Broadly, the EC50 is the concentration at which the effect is half-maximal. In general, IC50 refers to the point on the concentration scale where inhibition reaches its midpoint. For `CC(C)(O)[C@H](F)CNC(=O)c1cnc(-c2ccc3cc(C#N)cnn23)cc1Nc1cnn(C(F)F)c1` [Example 48, (R)-6-(3-cyanopyrrolo[1,2-b]pyridazin-7-yl)-4-((1-(difluoromethyl)-1H-pyrazol-4-yl)amino)-N-(2-fluoro-3-hydroxy-3-methylbutyl)nicotinamide], the EC50 in test [1] was 28 nM. Besides, the IC50 in test [2] is less than 1 nM.

With `CC(C)(O)[C@H](F)CNC(=O)c1cnc(-c2ccc3cc(C#N)cnn23)cc1Nc1cnn(CC(F)(F)F)c1` [Example 49, (R)-6-(3-cyanopyrrolo[1,2-b]pyridazin-7-yl)-N-(2-fluoro-3-hydroxy-3-methylbutyl)-4-((1-(2,2,2-trifluoroethyl)-1H-pyrazol-4-yl)amino)nicotinamide], the EC50 in test [1] came out at 8 nM. In test [2], this compound had an IC50 of less than 1 nM.

Consider `CC(C)(O)[C@H](F)CNC(=O)c1cnc(-c2ccc3cc(C#N)cnn23)cc1NC1CC2CCC(C1)O2` (stereo partly drawn) [Example 50, 4-(8-oxabicyclo[3.2.1]octan-3-ylamino)-6-(3-cyanopyrrolo[1,2-b]pyridazin-7-yl)-N-((R)-2-fluoro-3-hydroxy-3-methylbutyl) nicotinamide], for which the EC50 in test [1] came to 351 nM. Also, in test [2], the half-inhibitory concentration (IC50) was determined as 3 nM.

Take `CC(C)(O)[C@H](F)CNC(=O)c1cnc(-c2ccc3cc(C#N)cnn23)cc1N[C@@H]1CCN(S(C)(=O)=O)C1` [Example 53, 6-(3-cyanopyrrolo[1,2-b]pyridazin-7-yl)-N-((R)-2-fluoro-3-hydroxy-3-methylbutyl)-4-(((R)-1-(methylsulfonyl)pyrrolidin-3-yl)amino)nicotinamide]: the concentration for a half-maximal effect (EC50) in test [1] is 65 nM. In test [2], the IC50 was less than 1 nM.

As for `CC(C)(O)[C@H](F)CNC(=O)c1cnc(-c2ccc3cc(C#N)cnn23)cc1NC1COC1` [Example 54, (R)-6-(3-cyanopyrrolo[1,2-b]pyridazin-7-yl)-N-(2-fluoro-3-hydroxy-3-methylbutyl)-4-(oxetan-3-ylamino)nicotinamide], the concentration giving a half-maximal response (EC50) in test [1] stood at 26 nM. In test [2], this compound yielded an IC50 of less than 1 nM.

Regarding `CCn1cc(Nc2cc(-c3ccc4cc(C#N)cnn34)ncc2C(=O)NC[C@@H](F)C(C)(C)O)cn1` [Example 56, (R)-6-(3-cyanopyrrolo[1,2-b]pyridazin-7-yl)-4-((1-ethyl-1H-pyrazol-4-yl)amino)-N-(2-fluoro-3-hydroxy-3-methylbutyl)nicotinamide], in test [1], the EC50 was 13 nM. For the same compound, the IC50 in test [2] was less than 1 nM.

In the case of `CC(C)(O)[C@H](F)CNC(=O)c1cnc(-c2ccc3cc(C#N)cnn23)cc1N[C@@H]1CCOC[C@@H]1F` [Example 57, 6-(3-cyanopyrrolo[1,2-b]pyridazin-7-yl)-N-((R)-2-fluoro-3-hydroxy-3-methylbutyl)-4-(((3R,4R)-3-fluorotetrahydro-2H-pyran-4-yl)amino)nicotinamide], the EC50 in test [1] came to 46 nM. In test [2], the IC50 was less than 1 nM.

Consider `Cn1cc(Nc2cc(-c3ccc4cc(C#N)cnn34)ncc2C(=O)NC[C@@H](F)C(C)(C)O)nn1` [Example 58, (R)-6-(3-cyanopyrrolo[1,2-b]pyridazin-7-yl)-N-(2-fluoro-3-hydroxy-3-methylbutyl)-4-((1-methyl-1H-1,2,3-triazol-4-yl)amino)nicotinamide], for which, in test [1], the EC50 amounted to 91 nM. In test [2], this compound returned an IC50 of less than 1 nM.

For the compound `CC(C)(O)[C@H](F)CNC(=O)c1cnc(-c2ccc3cc(C#N)cnn23)cc1Nc1cnsc1` [Example 59, (R)-6-(3-cyanopyrrolo[1,2-b]pyridazin-7-yl)-N-(2-fluoro-3-hydroxy-3-methylbutyl)-4-(isothiazol-4-ylamino)nicotinamide], the 50% effective concentration (EC50) in test [1] was determined as 57 nM. Besides, the IC50 in test [2] is less than 1 nM.

On to `COC(=O)C1CC2(CC(NC(=O)c3cnc(-c4ccc5cc(C#N)cnn45)cc3NC(C)C)C2)C1` (stereo not shown) [Example 60, methyl 6-(6-(3-cyano-pyrrolo[1,2-b]pyridazin-7-yl)-4-(isopropylamino)nicotinamido) spiro[3.3]heptane-2-carboxylate], for which, in test [1], the EC50 is 512 nM. This compound also came in with a concentration for half-maximal inhibition (IC50) in test [2] of 1 nM.

For the compound `CC(C)(O)[C@H](F)CNC(=O)c1cnc(-c2ccc3cc(C#N)cnn23)cc1N[C@@H]1CCC[C@@H](O)C1` [Example 61, 6-(3-cyanopyrrolo[1,2-b]pyridazin-7-yl)-N-((R)-2-fluoro-3-hydroxy-3-methylbutyl)-4-(((1R,3R)-3-hydroxycyclohexyl)amino) nicotinamide], the EC50 in test [1] was 89 nM. Also, in test [2], the IC50 was less than 1 nM.

Regarding `CO[C@@H]1CCC[C@H](Nc2cc(-c3ccc4cc(C#N)cnn34)ncc2C(=O)NC[C@@H](F)C(C)(C)O)C1` [Example 62, 6-(3-cyanopyrrolo[1,2-b]pyridazin-7-yl)-N-((R)-2-fluoro-3-hydroxy-3-methylbutyl)-4-(((1S,3R)-3-methoxycyclohexyl)amino) nicotinamide], in test [1], the EC50 was found to be 83 nM. The same compound yielded an IC50 in test [2] of less than 1 nM.

On to `CC(C)(O)[C@H](F)CNC(=O)c1cnc(-c2ccc3cc(C#N)cnn23)cc1N[C@H]1CCC[C@H](O)C1` [Example 63, 6-(3-cyanopyrrolo[1,2-b]pyridazin-7-yl)-N-((R)-2-fluoro-3-hydroxy-3-methylbutyl)-4-(((1S,3S)-3-hydroxycyclohexyl)amino) nicotinamide], for which, in test [1], the EC50 amounted to 57 nM. Besides, the IC50 in test [2] is less than 1 nM.

Turning to `CC(C)(O)[C@H](F)CNC(=O)c1cnc(-c2ccc3cc(C#N)cnn23)cc1NC1CCCCC1` [Example 64, (R)-6-(3-cyanopyrrolo[1,2-b]pyridazin-7-yl)-4-(cyclohexylamino)-N-(2-fluoro-3-hydroxy-3-methylbutyl) nicotinamide], in test [1], the EC50 was 70 nM. In addition, in test [2], the half-inhibitory concentration (IC50) was less than 1 nM.

Take `CC(C)(O)[C@H](F)CNC(=O)c1cnc(-c2ccc3cc(C#N)cnn23)cc1N[C@@H]1CCC[C@H](O)C1` [Example 65, 6-(3-cyanopyrrolo[1,2-b]pyridazin-7-yl)-N-((R)-2-fluoro-3-hydroxy-3-methylbutyl)-4-(((1R,3S)-3-hydroxycyclohexyl)amino) nicotinamide]: the concentration for a half-maximal effect (EC50) in test [1] was 149 nM. Besides, in test [2], half-maximal inhibition (IC50) required 2 nM.

For `CC(C)Nc1cc(-c2ccc3cc(C#N)cnn23)ncc1C(=O)NNC(=O)C(C)(C)O` [Example 66, 6-(3-cyanopyrrolo[1,2-b]pyridazin-7-yl)-N′-(2-hydroxy-2-methylpropanoyl)-4-(isopropylamino) nicotinohydrazide], the half-maximal effective concentration (EC50) in test [1] turned out to be 458 nM. In test [2], this compound returned an IC50 of 46 nM.

For `CC(C)(O)[C@H](F)CNC(=O)c1cnc(-c2ccc3cc(C#N)cnn23)cc1Nc1cnn(C2CC2)c1` [Example 67, (R)-6-(3-cyanopyrrolo[1,2-b]pyridazin-7-yl)-4-((1-cyclopropyl-1H-pyrazol-4-yl)amino)-N-(2-fluoro-3-hydroxy-3-methylbutyl)nicotinamide], in test [1], the EC50 came to 43 nM. The compound further came in with an IC50 in test [2] of less than 1 nM.

As for `CC(C)Nc1cc(-c2ccc3cc(C#N)cnn23)ncc1C(=O)NNCC(C)(C)O` [Example 69, 6-(3-cyanopyrrolo[1,2-b]pyridazin-7-yl)-N′-(2-hydroxy-2-methylpropyl)-4-(isopropylamino) nicotinohydrazide], the concentration giving a half-maximal response (EC50) in test [1] is 515 nM. The IC50 in test [2] is 7 nM.

In the case of `CC(C)(O)[C@H](F)CNC(=O)c1cnc(-c2ccc3cc(C#N)cnn23)cc1Nc1cn[nH]c1` [Example 70, (R)-4-((1H-pyrazol-4-yl)amino)-6-(3-cyano-pyrrolo[1,2-b]pyridazin-7-yl)-N-(2-fluoro-3-hydroxy-3-methylbutyl)nicotinamide], the EC50 in test [1] was 47 nM. Also, the IC50 in test [2] was less than 1 nM.

Take `CC(C)Nc1cc(-c2ccc3cc(C#N)cnn23)ncc1C(=O)NC1CS(=O)(=O)C1` [Example 71, 6-(3-cyanopyrrolo[1,2-b]pyridazin-7-yl)-N-(1,1-dioxidothietan-3-yl)-4-(isopropylamino) nicotinamide]: the EC50 in test [1] was 298 nM. The compound further yielded an IC50 in test [2] of 9 nM.

Consider `CC(C)Nc1cc(-c2ccc3cc(C#N)cnn23)ncc1C(=O)NCC1CS(=O)(=O)C1` [Example 72, 6-(3-cyanopyrrolo[1,2-b]pyridazin-7-yl)-N-((1,1-dioxidothietan-3-yl)methyl)-4-(isopropylamino) nicotinamide], for which the EC50 in test [1] is 159 nM. In test [2], this compound gave an IC50 of 4 nM.

Regarding `CC(C)Nc1cc(-c2ccc3cc(C#N)cnn23)ncc1C(=O)NCC1CCS(=O)(=O)C1` (stereo not shown) [Example 73, 6-(3-cyanopyrrolo[1,2-b]pyridazin-7-yl)-N-((1,1-dioxidotetrahydrothiophen-3-yl)methyl)-4-(isopropylamino) nicotinamide], in test [1], the 50% effective concentration (EC50) was 119 nM. The same compound showed an IC50 in test [2] of 3 nM.

In the case of `CC(C)(O)[C@H](F)CNC(=O)c1cnc(-c2ccc3cc(C#N)cnn23)cc1NCC1CCS(=O)(=O)C1` (stereo partly drawn) [Example 74, 6-(3-cyanopyrrolo[1,2-b]pyridazin-7-yl)-4-(((1,1-dioxidotetrahydrothiophen-3-yl)methyl)amino)-N-((R)-2-fluoro-3-hydroxy-3-methylbutyl) nicotinamide], the EC50 in test [1] is 1100 nM. In test [2], this compound registered an IC50 of 2 nM.

Take `CC(C)(O)[C@H](F)CNC(=O)c1cnc(-c2ccc3cc(C#N)cnn23)cc1NC1CCS(=O)(=O)CC1` [Example 75, (R)-6-(3-cyanopyrrolo[1,2-b]pyridazin-7-yl)-4-((1,1-dioxidotetrahydro-2H-thiopyran-4-yl)amino)-N-(2-fluoro-3-hydroxy-3-methylbutyl) nicotinamide]: in test [1], the EC50 was 544 nM. Also, 3 nM corresponded to half-maximal inhibition in test [2] (IC50).

`CC(C)(O)[C@H](F)CNC(=O)c1cnc(-c2ccc3cc(C#N)cnn23)cc1NC1CCS(=O)(=O)C1` (stereo partly drawn) [Example 76, 6-(3-cyanopyrrolo[1,2-b]pyridazin-7-yl)-4-((1,1-dioxidotetrahydrothiophen-3-yl)amino)-N-((R)-2-fluoro-3-hydroxy-3-methylbutyl)nicotinamide]: the EC50 in test [1] was 348 nM. This compound displayed a 50% inhibitory concentration (IC50) in test [2] of 1 nM.

On to `CC(C)(O)[C@H](F)CNC(=O)c1cnc(-c2ccc3cc(C#N)cnn23)cc1NC1CS(=O)(=O)C1` [Example 77, (R)-6-(3-cyanopyrrolo[1,2-b]pyridazin-7-yl)-4-((1,1-dioxidothietan-3-yl)amino)-N-(2-fluoro-3-hydroxy-3-methylbutyl)nicotinamide], for which the EC50 in test [1] worked out at 352 nM. In test [2], this compound displayed a concentration for half-maximal inhibition (IC50) of 2 nM.
